Numbered stars: 1 amine (or outer) side, 2 acyl side, 3 side chain; on linkers, the order of the positions; unused ones are H or OH. Bridge positions count the residues as written; N and C are the ends. Square brackets hold non-standard residues; d marks the D form. Ends that are not written are not given here. I, II: the chains in the order shown. βAsp = O=C(O)[C@H](CC(=O)[*:2])N[*:1]; Dap = NC[C@H](N)C(=O)O
Assays:
RXFP2 [1] = molecular target: T1, RXFP2 (Homo sapiens, UniProt Q8WXD0); assay: RXFP2 competition binding assay with europium-labelled INSL3; set-up: expressed in transfected cells; host or cells: HEK-293T; conditions: competition with 0.3 nM europium-labelled INSL3, unlabelled peptide 0.01 nM–1 μM; HEK-293T cells stably transfected with RXFP2; mean ± SEM; n in parentheses in Table 1 (6 for human INSL3, 3 for the analogues); read-out: Receptor binding pKi (converted)
T1 sequence (Q8WXD0 whole entry): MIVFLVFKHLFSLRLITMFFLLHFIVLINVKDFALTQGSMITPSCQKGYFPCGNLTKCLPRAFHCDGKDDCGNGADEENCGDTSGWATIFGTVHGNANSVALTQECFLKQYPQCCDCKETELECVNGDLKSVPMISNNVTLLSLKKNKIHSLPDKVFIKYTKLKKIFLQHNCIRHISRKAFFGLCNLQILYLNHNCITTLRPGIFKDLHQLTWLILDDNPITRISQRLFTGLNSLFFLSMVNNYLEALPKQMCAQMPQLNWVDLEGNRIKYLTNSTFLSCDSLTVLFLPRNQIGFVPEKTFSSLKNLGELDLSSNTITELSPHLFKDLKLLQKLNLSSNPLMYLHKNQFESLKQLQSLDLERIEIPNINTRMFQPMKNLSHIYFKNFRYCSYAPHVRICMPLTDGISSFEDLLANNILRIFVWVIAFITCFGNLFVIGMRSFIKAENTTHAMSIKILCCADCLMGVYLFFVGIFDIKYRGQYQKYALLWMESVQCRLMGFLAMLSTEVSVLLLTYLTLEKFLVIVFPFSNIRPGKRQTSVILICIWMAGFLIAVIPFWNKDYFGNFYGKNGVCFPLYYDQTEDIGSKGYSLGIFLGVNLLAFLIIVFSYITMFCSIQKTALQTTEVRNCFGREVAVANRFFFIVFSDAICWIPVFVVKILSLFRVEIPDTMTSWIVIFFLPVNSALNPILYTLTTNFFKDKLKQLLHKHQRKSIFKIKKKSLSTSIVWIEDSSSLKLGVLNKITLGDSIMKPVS

RXFP2 [2] = molecular target: T1, RXFP2; set-up: expressed in transfected cells; conditions: data for entry 2 taken from the reference; n = 3; ref [32]; cited from earlier work
Source text: Table 1 Receptor binding affinities (pKi) of INSL3 and analogues. Data for entry 2 taken from reference. | column: Receptor binding pKi (n=) || Moreover, to date, there have been no reports of a chemical synthesis of a bis-lactam cross-linked heterodimeric peptide. Consequently, in this study, we undertook an examination of the feasibility of a total step-wise synthesis of, first, a monolactam A24-B22 analogue and, subsequently, a bis-lactam A11-B10/A24-B22 analogue of INSL3. Our novel strategy involved the continuous assembly of both the A- and B-chains, plus the lactam bridges on the same solid support, that is, without using preformed peptide fragments. In order to simplify assembly, the C-terminus of the A-chain was truncated at p ... || Both the ΔA25/26 human INSL3 monolactam A24-B22 and bis-lactam A11-B10/A24-B22 analogues were tested in the RXFP2 competition binding assay (Table 1).

Ki (RXFP2 [1]) [nM]	Substance	Receptor binding pKi (RXFP2 [2])
12	I: PTPEMREKL[Dap]GHHFVRALVRV[Dap]GGPRWSTEA / II: AAATNPARYCDLSGCTQQDLLTL[βAsp] (amide I:10-II:11, I:22-II:C; disulfide II:10-II:15)	–
0.575	I: PTPEMREKLCGHHFVRALVRVCGGPRWSTEA / II: AAATNPARYCCLSGCTQQDLLTLCPY (disulfide I:10-II:11, I:22-II:24, II:10-II:15) [Human INSL3]	–
4.47	I: PTPEMREKLCGHHFVRALVRV[Dap]GGPRWSTEA / II: AAATNPARYCCLSGCTQQDLLTL[βAsp] (disulfide I:10-II:11, II:10-II:15; amide I:22-II:C) [ΔA25/26 human INSL3 mono-lactam A24-B22]	–
–	ΔA25/26 human INSL3: INSL3 analogue, C-terminus of the A-chain truncated at position 24, omitting Pro A25 and Tyr A26 (chain 1 AAATNPARYCCLSGCTQQDLLTLC; chain 2 PTPEMREKLCGHHFVRALVRVCGGPRWSTEA; Disulfides A10-A15 (intra-A), A11-B10 and A24-B22 (interchain); A-chain is A1-A24 (Pro A25 and Tyr A26 omitted); B-chain is 31 residues ending in Ala; Ch)	8.59 ± 0.06 (3)

— PMC3830869, “Total Chemical Synthesis of a Heterodimeric Interchain Bis-Lactam-Linked Peptide: Application to an Analogue of Human Insulin-Like Peptide 3” (International Journal of Peptides, 2013)
